Experimental data taken from patent US10774046B2, “Inhibitors for the treatment of cancer and related methods” (UNIVERSITY OF LOUISVILLE RESEARCH FOUNDATION, INC., priority 2017, dated 2020).

Tests used:
[1] = system: H460 human lung adenocarcinoma xenografts; assay: H460 xenograft growth in athymic mice; format: in vivo, BALB/c athymic mice
[2] = two-week oral toxicity study; format: in vivo; settings: 120 mg/kg PO for two weeks
Method: Given the potential usefulness of oral administration in terms of cost and convenience, we elected to pursue this route in subsequent toxicity and efficacy pre-clinical studies. Initially, we dosed C57BL/6 mice with 120 mg/kg PO for two weeks and analyzed the effect on complete blood counts, electrolytes, hepatic and renal function, body mass and the gross and histological appearance of the brain, heart, lungs, liver, kidneys and spleen. […] Next, the effects of oral administration of 5MPN on intratumoral F2,6BP and glucose uptake by LLC xenografts was examined. There was a reduction in F2,6BP (FIG. 4E) and 2-[^18F]-fluoro-2-deoxyglucose uptake using positron emission tomography (FIG. 4F). It was confirmed that 5MPN caused a G1 arrest in LLC cells in vitro similar to H460 cells (FIG. 4G). The number of Ki67-positive cells was examined since Ki-67 expression correlated with later S and G2 phases of the cell cycle (SASAKI et al. “The cell cycle associated change of the Ki-67 reactive nuclear antigen expression” J Cell Physiol (1987) Vol. 133, No. 3, pp. 579-584).

LLC cells = assay: cell cycle analysis by flow cytometry; format: cell-based, mouse; settings: LLC cells in vitro, 10 μM 5MPN
Method: To measure apoptosis, cells were stained with annexin V and propidium iodide and examined as previously described. For example, H460 cells were exposed to increasing concentrations of the PFKFB4 inhibitor (MPN-2), the PFKFB3 inhibitor PFK15 (Tocris) or both and viable cells were counted at 24, 48 and 72 hours. DMSO used as vehicle. For cell cycle experiments, cells were detached, washed with cold PBS and fixed in 70% ethanol (4° C., 30 minutes). The cells then were pelleted by centrifugation, resuspended in PBS containing PI and RNase A, incubated at 37° C. in the dark for 30 minutes and analyzed by flow cytometry (BD FACSCalibur). Data were analyzed using FlowJo software (TREE STAR Inc.). Results were calculated as the mean±SD of three experiments. The effects (Fa values) of the series of concentrations of MPN-2 and PFK-15 were examined individually and in combination at a constant ratio of 1:1.

LLC xenografts = assay: intratumoral F2,6BP; format: in vivo, C57BL/6 mice; settings: 120 mg/kg by gavage daily, 10 days
Method: Cells or tissues were prepared as previously described and F2,6BP content measured using a coupled enzyme reaction following a modification of the method of Van Schaftingen et al (VAN SCHAFTINGEN E et al. “A kinetic study of pyrophosphate:fructose-6-phosphate phosphotransferase from potato tubers. Application to a microassay of fructose 2,6-bisphosphate” Eur J Biochem (1982) Vol. 129, No. 1, pp. 191-195) and normalized to total cellular protein measured by the bicinchoninic acid assay (BCA, Thermo Scientific). For example, H460 cells were exposed to the indicated concentrations of MPN-2. In order to measure F2,6BP, cells were harvested, washed with PBS, lysed in NaOH/Tris acetate by heating at 80° C. and lysates neutralized to pH 7.2. F2,6BP content was measured using a coupled enzyme reaction following a modified method of Van Schaftingen et al (VAN SCHAFTINGEN E et al. “A kinetic study of pyrophosphate:fructose-6-phosphate phosphotransferase from potato tubers. Application to a microassay of fructose 2,6-bisphosphate” Eur J Biochem (1982) Vol. 129, No. 1, pp. 191-195). The F2,6BP concentration was normalized to total cellular protein measured by the bicinchoninic acid assay (BCA, Thermo Scientific). All data are expressed as the mean±SD of three experiments. Statistical significance was assessed by the two-sample t test (independent variable). […]

cancer cells [3] = assay: glycolysis assay (3H2O from 5-[3H]glucose); format: cell-based; settings: increasing concentrations
Method: Method: To examine glycolysis, cells growing in 6-well plates were incubated in 500 μl of complete medium containing 1 μCi of 5-[^3H] glucose per well for 60 min in 5% CO2 at 37° C. The medium was then collected and centrifuged to pellet any suspended cells. To separate the ^3H2O formed via glycolysis from the 5-[^3H]glucose added to the medium, an evaporation technique in a sealed system was utilized. Briefly, 150 μl aliquots of medium were added to open tubes that were placed upright inside scintillation vials containing 1 ml of H2O. The scintillation vials were sealed, and the ^3H2O produced by glycolysis through enolase and released to the medium was allowed to equilibrate with the H2O in the outer vial for 48 h at 37° C. The amounts of ^3H2O that had diffused into the surrounding H2O was measured on a Tri-Carb 2910 liquid scintillation analyzer (Perkin Elmer) and compared with ^3H2O and 5-[^3H]glucose standards. Protein concentration was determined using the BCA assay and counts were normalized to protein concentration (previously described in CHESNEY et al., “Fructose-2,6-bisphosphate synthesis by 6-phosphofructo-2-kinase/fructose-2,6-bisphosphatase 4 (PFKFB4) is required for the glycolytic response to hypoxia and tumor growth” Oncotarget (2014) Vol. 5, No. 16, pp. 6670-6686, which is herein incorporated by reference in its entirety).

cancer cells [4] = assay: anchorage independent growth as colonies in soft agar; format: cell-based; settings: increasing concentrations
Method: Method: Cancer cells were plated in soft agar and the effects of increasing concentrations of Formula (VIII) on anchorage independent growth was examined. Briefly, a feeder layer of 0.6% agarose (Agar Noble, Becton Dickinson) in RPMI with 10% fetal bovine serum was plated in 6 cm plates containing vehicle (DMSO) or increasing concentrations of Formula (VIII). 1×10^4 cells were re-suspended in 0.3% agarose in RPMI/10% serum containing DMSO or increasing concentrations of Formula (VIII) and plated on top of the feeder layer. Cells were allowed to grow at 37° C. in 5% CO2 and agarose-containing media with DMSO+/−Formula (VIII) was replenished every 5 days until colonies became visible. Colonies were stained with MTT [3-(4,5-dimethylthiazol-2-yl)-2,5-diphenyl tetrazolium bromide] and counted in four random 1 cm^2 areas per plate under 40× magnification and enumerated.

Row | Compound | tumor growth ([1]; 5MPN 120 mg/kg oral daily) | body weight ([1]; H460-bearing athymic mice, 120 mg/kg oral daily) | signs of toxicity (blood counts, electrolytes, hepatic and renal function, body mass, histology, behavior) [2] | cell cycle distribution (LLC cells) | intratumoral F2,6BP (LLC xenografts) | glycolysis (production of 3H2O relative to DMSO) (cancer cells [3]) | anchorage independent growth (soft agar colonies) (cancer cells [4])
1 | COc1cccc2c(NCCCCCO[N+](=O)[O-])ccnc12 [5MPN, 5-[(8-methoxyquinolin-4-yl)amino]pentyl nitrate] | suppressed the growth | without affecting body weight | no signs of toxicity | G1 arrest | reduction |  | 
2 | COc1cccc2c(NCCCCCNC(=O)C(F)(F)F)ccnc12 [Formula (VIII), 2,2,2-trifluoro-N-(5-((8-methoxyquinolin-4-yl)amino)pentyl)acetamide] |  |  |  |  |  | dose-dependent decrease | inhibited the growth of cancer cells as soft agar colonies
